Results reported in ChEMBL document CHEMBL5126517, “Structure-Activity Relationship in the Leucettine Family of Kinase Inhibitors” (J Med Chem, 2022).

Legend:
[1] = target: Dual specificity protein kinase CLK4 (Mus musculus, UniProt O35493); test: Inhibition of GST-fused mouse recombinant CLK4 expressed in Escherichia coli using GRSRSRSRSRSR peptide as substrate incubated for 30 mins in presence of ATP by scintillation counting method
[2] = target: Dual specificity protein kinase CLK1 (Mus musculus, UniProt P22518); test: Inhibition of GST-fused mouse recombinant CLK1 expressed in Escherichia coli using GRSRSRSRSRSR peptide as substrate incubated for 30 mins in presence of ATP by scintillation counting method
Dual specificity protein kinase CLK1, sequence (P22518 whole entry, the tested form may be a part): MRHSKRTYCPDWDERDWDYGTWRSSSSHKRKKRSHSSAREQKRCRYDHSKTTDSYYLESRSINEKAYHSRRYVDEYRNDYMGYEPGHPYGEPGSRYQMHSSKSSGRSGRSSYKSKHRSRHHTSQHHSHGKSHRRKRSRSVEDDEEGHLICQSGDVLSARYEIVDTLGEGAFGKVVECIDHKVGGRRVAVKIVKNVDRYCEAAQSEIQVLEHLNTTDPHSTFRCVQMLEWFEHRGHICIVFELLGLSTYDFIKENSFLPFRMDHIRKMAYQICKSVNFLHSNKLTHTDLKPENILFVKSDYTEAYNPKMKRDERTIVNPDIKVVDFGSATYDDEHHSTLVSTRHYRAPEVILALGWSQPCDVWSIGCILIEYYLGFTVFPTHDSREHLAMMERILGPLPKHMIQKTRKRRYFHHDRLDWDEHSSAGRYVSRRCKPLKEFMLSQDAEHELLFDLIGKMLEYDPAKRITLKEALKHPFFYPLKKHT

[3] = target: T1, Dual specificity tyrosine-phosphorylation-regulated kinase 2 (Homo sapiens, UniProt Q92630); test: Inhibition of GST-fused human recombinant DYRK2 expressed in Escherichia coli using GRSRSRSRSRSR peptide as substrate incubated for 30 mins in presence of ATP by scintillation counting method
T1 sequence (Q92630 whole entry): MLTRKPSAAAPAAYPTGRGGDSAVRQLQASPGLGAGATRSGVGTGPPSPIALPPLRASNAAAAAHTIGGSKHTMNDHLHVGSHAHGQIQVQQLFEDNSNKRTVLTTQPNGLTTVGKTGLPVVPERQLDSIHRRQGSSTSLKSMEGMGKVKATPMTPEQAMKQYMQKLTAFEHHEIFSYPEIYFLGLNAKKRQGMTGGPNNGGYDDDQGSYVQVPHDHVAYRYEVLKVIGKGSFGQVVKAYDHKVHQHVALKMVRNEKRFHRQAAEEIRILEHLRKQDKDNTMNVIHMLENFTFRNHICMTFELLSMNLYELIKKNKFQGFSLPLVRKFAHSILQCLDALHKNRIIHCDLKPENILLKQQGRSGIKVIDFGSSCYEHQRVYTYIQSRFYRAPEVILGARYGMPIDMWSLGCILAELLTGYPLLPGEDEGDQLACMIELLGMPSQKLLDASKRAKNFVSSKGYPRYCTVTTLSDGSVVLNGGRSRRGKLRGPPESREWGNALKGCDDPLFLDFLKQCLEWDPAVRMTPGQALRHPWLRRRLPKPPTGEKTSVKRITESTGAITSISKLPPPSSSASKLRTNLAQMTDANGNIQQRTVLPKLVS

[4] = test system: U2OS; test: Induction of PI3K/mTor-dependent autophagy in human U2OS cells assessed as number of LC3 foci per cell at 10 uM measured after 4 hrs; format: cell-based; conditions: filed as activator
[5] = target: Glycogen synthase kinase-3 (Sus scrofa, UniProt B2LUN4+I6LNT8); test: Inhibition of porcine brain GSK-3alpha/beta using YRRAAVPPSPSLSRHSSPHQpSEDEEE as substrate incubated for 30 mins in presence of ATP by scintillation counting method; format: tissue-based
[6] = test system: HT-22; test: Neuroprotective activity against glutamate-induced cell death in mouse HT-22 cells treated for 24 hrs by MTS assay; format: functional, cell-based; conditions: HT-22, 24 h
[7] = Neurotoxicity against mouse HT-22 cells assessed as cell survival at 20 uM treated for 24 hrs by MTS assay; format: toxicity, cell-based; conditions: ht-22, 24 h
[8] = target: Dual specificity tyrosine-phosphorylation-regulated kinase 1B (Homo sapiens, UniProt Q9Y463)
Dual specificity tyrosine-phosphorylation-regulated kinase 1B, sequence (Q9Y463 whole entry, the tested form may be a part): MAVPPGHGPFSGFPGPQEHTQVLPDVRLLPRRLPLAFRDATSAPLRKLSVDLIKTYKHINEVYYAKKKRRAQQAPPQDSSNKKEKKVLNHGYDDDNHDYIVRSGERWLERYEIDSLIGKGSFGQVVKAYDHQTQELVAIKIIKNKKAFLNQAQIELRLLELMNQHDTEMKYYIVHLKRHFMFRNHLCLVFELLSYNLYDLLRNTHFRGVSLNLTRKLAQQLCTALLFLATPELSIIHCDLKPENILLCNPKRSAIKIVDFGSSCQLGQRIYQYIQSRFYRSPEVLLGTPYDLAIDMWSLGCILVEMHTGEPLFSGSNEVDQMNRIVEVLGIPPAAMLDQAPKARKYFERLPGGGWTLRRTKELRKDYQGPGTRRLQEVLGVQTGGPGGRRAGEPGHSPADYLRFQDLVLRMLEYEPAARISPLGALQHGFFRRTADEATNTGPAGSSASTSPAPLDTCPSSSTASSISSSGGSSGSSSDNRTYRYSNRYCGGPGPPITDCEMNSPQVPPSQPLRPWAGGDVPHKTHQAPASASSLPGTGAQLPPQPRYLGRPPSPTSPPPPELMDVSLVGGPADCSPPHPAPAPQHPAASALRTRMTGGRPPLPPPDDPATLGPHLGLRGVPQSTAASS

[9] = target: Dual specificity tyrosine-phosphorylation-regulated kinase 1A (Homo sapiens, UniProt Q13627); test: Inhibition of GST-fused human recombinant DYRK1A expressed in Escherichia coli using GRSRSRSRSRSR peptide as substrate incubated for 30 mins in presence of ATP by scintillation counting method
[10] = target: Dual specificity protein kinase CLK2 (Mus musculus, UniProt O35491); test: Inhibition of mouse recombinant GST-fused CLK2 expressed in Escherichia coli using GRSRSRSRSRSR peptide as substrate incubated for 30 mins in presence of ATP by scintillation counting method
Dual specificity protein kinase CLK2, sequence (O35491 whole entry, the tested form may be a part): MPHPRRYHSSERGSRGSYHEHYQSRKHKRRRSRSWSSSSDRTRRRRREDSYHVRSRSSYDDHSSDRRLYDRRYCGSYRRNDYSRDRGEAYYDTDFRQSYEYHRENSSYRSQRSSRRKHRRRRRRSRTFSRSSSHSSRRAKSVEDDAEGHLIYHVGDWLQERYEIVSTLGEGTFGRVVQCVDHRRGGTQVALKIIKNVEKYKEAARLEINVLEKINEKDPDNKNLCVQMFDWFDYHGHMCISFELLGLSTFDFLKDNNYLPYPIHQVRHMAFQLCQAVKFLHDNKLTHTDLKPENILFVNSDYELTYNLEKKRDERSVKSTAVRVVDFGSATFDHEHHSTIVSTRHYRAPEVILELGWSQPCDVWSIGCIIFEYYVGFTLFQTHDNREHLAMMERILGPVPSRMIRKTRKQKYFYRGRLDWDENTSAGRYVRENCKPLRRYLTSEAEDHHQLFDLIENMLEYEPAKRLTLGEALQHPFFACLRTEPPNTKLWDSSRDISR

[11] = target: Cannabinoid receptor 1 (Homo sapiens, UniProt P21554); test: Antagonist activity at CP-55940-activated CB1 receptor (unknown origin) at 10 uM by beta-arrestin assay relative to control; format: functional; set-up: scale not given: the % may be the effect or the level left
Cannabinoid receptor 1, sequence (P21554 whole entry): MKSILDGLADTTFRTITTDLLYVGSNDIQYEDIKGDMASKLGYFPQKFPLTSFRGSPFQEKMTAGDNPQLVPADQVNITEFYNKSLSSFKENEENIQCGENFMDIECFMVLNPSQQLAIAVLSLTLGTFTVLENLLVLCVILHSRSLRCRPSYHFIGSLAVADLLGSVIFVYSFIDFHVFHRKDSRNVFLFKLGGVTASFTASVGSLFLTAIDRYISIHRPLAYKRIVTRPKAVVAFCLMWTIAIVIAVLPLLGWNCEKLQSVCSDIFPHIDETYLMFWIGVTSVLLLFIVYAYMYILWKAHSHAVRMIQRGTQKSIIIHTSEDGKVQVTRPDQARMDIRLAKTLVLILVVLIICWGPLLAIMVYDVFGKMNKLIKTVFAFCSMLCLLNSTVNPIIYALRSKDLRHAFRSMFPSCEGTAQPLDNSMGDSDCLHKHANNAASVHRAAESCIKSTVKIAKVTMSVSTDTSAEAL

[12] = target: Casein kinase 2 (Homo sapiens, UniProt P67870+P68400+P19784+Q8NEV1); test: Inhibition of human recombinant CK2 using RRRDDDSDDD peptide as substrate incubated for 30 mins in presence of ATP by scintillation counting method; format: protein assay
[13] = target: T2, Dual specificity tyrosine-phosphorylation-regulated kinase 3 (Homo sapiens, UniProt O43781); test: Inhibition of GST-fused human recombinant DYRK3 expressed in Escherichia coli using GRSRSRSRSRSR peptide as substrate incubated for 30 mins in presence of ATP by scintillation counting method
T2 sequence (O43781 whole entry): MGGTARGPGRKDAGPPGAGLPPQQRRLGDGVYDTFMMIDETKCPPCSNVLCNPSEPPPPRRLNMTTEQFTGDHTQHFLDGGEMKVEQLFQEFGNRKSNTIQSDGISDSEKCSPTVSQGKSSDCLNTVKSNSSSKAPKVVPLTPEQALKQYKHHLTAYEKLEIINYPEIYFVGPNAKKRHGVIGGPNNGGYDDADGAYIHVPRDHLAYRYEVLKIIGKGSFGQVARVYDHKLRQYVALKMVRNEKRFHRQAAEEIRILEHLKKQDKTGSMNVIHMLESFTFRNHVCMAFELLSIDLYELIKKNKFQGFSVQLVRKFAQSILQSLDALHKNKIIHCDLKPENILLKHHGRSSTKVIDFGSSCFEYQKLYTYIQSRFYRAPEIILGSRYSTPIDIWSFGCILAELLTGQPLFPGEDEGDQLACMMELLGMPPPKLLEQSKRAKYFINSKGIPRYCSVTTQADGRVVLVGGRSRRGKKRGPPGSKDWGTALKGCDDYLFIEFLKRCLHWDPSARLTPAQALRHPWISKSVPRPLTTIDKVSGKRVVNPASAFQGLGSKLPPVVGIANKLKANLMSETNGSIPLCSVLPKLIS

[14] = target: Serine/threonine-protein kinase pim-1 (Homo sapiens, UniProt P11309); test: Inhibition of human recombinant Pim1 expressed in Escherichia coli using histone H1 as substrate incubated for 30 mins in presence of ATP by scintillation counting method
Serine/threonine-protein kinase pim-1, sequence (P11309 whole entry, the tested form may be a part): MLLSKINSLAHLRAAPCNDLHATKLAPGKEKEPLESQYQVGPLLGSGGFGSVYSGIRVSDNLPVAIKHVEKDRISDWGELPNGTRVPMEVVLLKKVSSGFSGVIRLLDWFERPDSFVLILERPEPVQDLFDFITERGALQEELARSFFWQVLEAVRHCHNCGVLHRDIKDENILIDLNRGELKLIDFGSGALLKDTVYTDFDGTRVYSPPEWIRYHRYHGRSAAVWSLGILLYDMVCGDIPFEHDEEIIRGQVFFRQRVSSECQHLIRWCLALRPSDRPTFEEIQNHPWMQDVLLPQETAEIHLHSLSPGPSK

[15] = target: Dual specificity protein kinase CLK3 (Mus musculus, UniProt O35492); test: Inhibition of GST-fused mouse recombinant CLK3 expressed in Escherichia coli using GRSRSRSRSRSR peptide as substrate incubated for 30 mins in presence of ATP by scintillation counting method
Dual specificity protein kinase CLK3, sequence (O35492 whole entry, the tested form may be a part): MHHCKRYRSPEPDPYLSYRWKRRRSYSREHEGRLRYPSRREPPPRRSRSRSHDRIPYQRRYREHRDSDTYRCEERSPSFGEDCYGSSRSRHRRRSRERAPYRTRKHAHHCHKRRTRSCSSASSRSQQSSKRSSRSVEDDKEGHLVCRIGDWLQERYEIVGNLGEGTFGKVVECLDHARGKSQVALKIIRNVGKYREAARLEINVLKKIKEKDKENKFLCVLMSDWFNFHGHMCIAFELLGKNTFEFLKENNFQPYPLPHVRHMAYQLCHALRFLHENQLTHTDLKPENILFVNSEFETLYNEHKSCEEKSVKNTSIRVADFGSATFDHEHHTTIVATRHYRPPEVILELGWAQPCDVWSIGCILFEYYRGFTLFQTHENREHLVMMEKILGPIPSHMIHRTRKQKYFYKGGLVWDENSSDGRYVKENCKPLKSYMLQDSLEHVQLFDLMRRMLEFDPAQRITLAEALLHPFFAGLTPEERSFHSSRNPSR

Dual specificity protein kinase CLK4, sequence (O35493 whole entry, the tested form may be a part): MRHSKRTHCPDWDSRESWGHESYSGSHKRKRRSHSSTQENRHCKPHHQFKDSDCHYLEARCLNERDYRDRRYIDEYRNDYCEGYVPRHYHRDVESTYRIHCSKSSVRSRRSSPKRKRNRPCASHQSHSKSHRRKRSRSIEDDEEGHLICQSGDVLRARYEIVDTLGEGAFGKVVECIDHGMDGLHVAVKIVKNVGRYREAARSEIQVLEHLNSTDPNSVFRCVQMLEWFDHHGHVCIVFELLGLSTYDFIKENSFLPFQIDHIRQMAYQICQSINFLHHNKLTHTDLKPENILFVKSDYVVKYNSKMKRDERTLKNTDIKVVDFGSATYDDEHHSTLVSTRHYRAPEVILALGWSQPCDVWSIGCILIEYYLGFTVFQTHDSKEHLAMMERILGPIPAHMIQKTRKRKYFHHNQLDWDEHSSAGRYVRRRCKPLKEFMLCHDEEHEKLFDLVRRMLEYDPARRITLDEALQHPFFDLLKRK

| SMILES | IC50 [1] | IC50 [2] | IC50 [3] | Activity [4] | IC50 [5] | EC50 [6] | Activity [7] | IC50 [8] | IC50 [9] | IC50 [10] | Activity ([11]; filed as antagonist) | IC50 [12] | IC50 [13] | IC50 [14] | IC50 [15] | Activity [11] |
| --- | --- | --- | --- | --- | --- | --- | --- | --- | --- | --- | --- | --- | --- | --- | --- | --- |
| O=C1NC(Nc2ccc(Oc3ccccc3)cc2)=N/C1=C\c1ccc2c(c1)OCO2 | 0.76 µM | 1.8 µM | 1.1 µM | 4.6 | > 10 µM | 2.4 µM | Non-Toxic | 4 µM | 0.92 µM | > 10 µM | 73.5% |  |  |  |  |  |
| COc1ccc(/C=C2\N=C(Nc3ccccc3)NC2=O)cc1O | 4 µM | 4.3 µM | 2.1 µM | 6.5 |  | 5.57 µM | Non-Toxic | 2.8 µM | 2 µM | ≥ 10 µM | 46.8% | > 10 µM | 2.4 µM | 1.9 µM |  |  |
| O=C1NC(Nc2ccccc2)=N/C1=C\c1ccc2c(c1)CCO2 | 0.019 µM | 0.022 µM | 0.041 µM | 10.2 | > 10 µM | 7 µM | Non-Toxic | 0.088 µM | 0.032 µM | 0.12 µM | 96.4% | 1.1 µM | 0.24 µM | 3.2 µM | 1.2 µM |  |
| O=C1NC(Nc2ccccc2)=N/C1=C\c1ccc2c(c1)OCCO2 | 0.14 µM | 0.13 µM | 0.092 µM | 6.6 | 2 µM | 10 µM | Non-Toxic | 0.25 µM | 0.076 µM | 0.88 µM | 96.3% | 0.97 µM | 0.42 µM | 1 µM | 2.4 µM |  |
| O=C1NC(Nc2ccc(N3CCNCC3)cc2)=N/C1=C\c1ccc2c(c1)OCO2 | 0.52 µM | 0.42 µM | 0.41 µM | 7.3 | 2.4 µM | 0.91 µM | Non-Toxic | 0.95 µM | 0.35 µM | 1.8 µM |  | 2.3 µM | 1.2 µM | 6.1 µM | 9 µM | -47.5% |
| O=C1NC(Nc2ccccc2)=N/C1=C\c1ccc(O)c(O)c1 | 0.13 µM | 0.21 µM | 0.27 µM | 10.1 | 1.2 µM | 3.3 µM | Non-Toxic | 0.32 µM | 0.15 µM | 1.5 µM |  | 1.5 µM | 1.2 µM | 0.84 µM | 2.3 µM | -22.3% |
| O=C1NC(Nc2ccccc2)=N/C1=C\c1ccc(F)cc1 | 2.8 µM | 3.2 µM |  | 20.2 |  | 2.85 µM | Non-Toxic | > 10 µM | 9.5 µM | > 10 µM | 78% | 3.2 µM |  | > 10 µM | > 10 µM |  |
| [2H]C1([2H])Oc2ccc(/C=C3\N=C(Nc4ccccc4)NC3=O)cc2O1 |  | 0.04 µM |  |  | 0.75 µM | 4.9 µM | Non-Toxic |  |  | 0.17 µM |  | 1.6 µM |  |  | 0.5 µM |  |
| Cc1ccc(C)c(NC2=N/C(=C\c3ccc4c(c3)OCO4)C(=O)N2)c1 | 0.023 µM | 0.05 µM | 0.022 µM | 26 | 10 µM | 7 µM | Non-Toxic | 0.092 µM | 0.024 µM | 0.18 µM |  | 1.6 µM | 0.8 µM | 7.7 µM | 3.5 µM | 10.8% |
| O=C1NC(Nc2ccc(N3CCNCC3)cc2)=N/C1=C\c1ccc2c(c1)OC=CO2 | 0.64 µM | 1.1 µM | 0.35 µM | 7.3 | 4.6 µM | 1.25 µM | Non-Toxic | 1.4 µM | 0.53 µM | 2.3 µM |  | 3 µM | 1.1 µM | 5.4 µM | > 10 µM | -20% |
| COc1cc(/C=C2\N=C(Nc3ccc(N4CCNCC4)cc3)NC2=O)ccc1O | 1.2 µM | 1.2 µM | 2.1 µM | 6.3 | 6.5 µM | 7 µM | Non-Toxic | 2.2 µM | 1.3 µM | 3.5 µM |  |  | 1.5 µM | > 10 µM | > 10 µM | -26.8% |
| O=C1NC(Nc2ccccc2)=N/C1=C\c1ccccc1 |  |  |  | 7.7 |  | 7.2 µM | Non-Toxic |  |  |  | 44.6% |  |  |  |  |  |
| CCCCCCc1ccc(NC2=N/C(=C\c3ccc4c(c3)OCO4)C(=O)N2)cc1 | 4.1 µM | > 10 µM | 9.5 µM | 6.5 |  | 1.19 µM | Non-Toxic | > 10 µM | > 10 µM |  | 75% |  |  |  |  |  |
| O=C1NC(Nc2ccc(F)cc2)=N/C1=C\c1ccc2c(c1)OCO2 | 0.05 µM | 0.062 µM | 0.035 µM | 4.9 | 8.8 µM | 3.6 µM | Non-Toxic | 0.1 µM | 0.028 µM | 0.26 µM | 76.4% | 8.8 µM | 0.93 µM | 9.3 µM | > 10 µM |  |
| O=C1NC(Nc2ccc(O)c(F)c2)=N/C1=C\c1ccc2c(c1)OCO2 | 0.019 µM | 0.016 µM | 0.011 µM | 18.2 | 0.55 µM | 13 µM | Non-Toxic | 0.023 µM | 0.012 µM | 0.12 µM |  | 0.32 µM | 0.17 µM | 0.61 µM | 0.4 µM | -5.6% |
